The text below walks through data of ChEMBL document CHEMBL1122198, “Synthesis and dopamine receptor binding of exo- and endo-2-amino-6,7-dihydroxybenzonorbornene, rigid analogues of 2-amino-6,7-dihydroxytetrahydronaphthalene” (J Med Chem, 1982).

The target in this test is Dopamine receptor (Bos taurus, UniProt Q95136+P20288). In words: Evaluated for the inhibition of binding of [3H]DA (dopamine) to dopamine receptor in calf striatal homogenate.

In turn, `NC1CCc2cc(O)c(O)cc2C1` (stereo unspecified) showed a half-maximal inhibitory concentration (IC50) of 6 nM.
